Entries after “also recorded” stand apart in the source; their conditions may differ.
Legend:
heme oxygenase-1 (HO-1) = conditions: nanomolar concentrations; cited from earlier work
[1] = Brain levels of triterpenoids in mice fed compound in diet (LC/MS)
MOG-induced EAE [2] = assay: Prophylactic treatment in MOG EAE model; assay type: in vivo, mouse; conditions: 100 nanomoles IP, pre and/or post MOG (Day -1, 1, 3, 5); FIGS. 23, 24
Method: FIGS. 23 & 24—Prophylactic Treatment of CDDO-Me (RTA 402) or CDDO-TFEA (RTA-404) Delays Induction of Symptoms in Model of Multiple Sclerosis.
In prophylactic studies (FIGS. 23-24) the following design was used:
Day-1: 100 nanomoles IP RTA 404 (2.9 mg/kg) or RTA 402 (2.5 mg/kg) in pre and pre/post groups
Day 1: 100 nanomoles IP RTA 404 (2.9 mg/kg) or RTA 402 (2.5 mg/kg) in post and pre/post groups
Day 3: 100 nanomoles IP RTA 404 (2.9 mg/kg) or RTA 402 (2.5 mg/kg) in post and pre/post groups
Day 5: 100 nanomoles IP RTA 404 (2.9 mg/kg) or RTA 402 (2.5 mg/kg) in post and pre/post groups

[3] = Tissue distribution of CDDO-Me in cynomolgus monkeys after 3 days of oral dosing; assay type: in vivo; conditions: cynomolgus monkey, about 3 h after last dose, sesame oil vehicle
Method: Experiments using CDDO-Me (RTA-402) were also conducted on 1 male and 1 female cynomolgus monkey (origin: Vietnam) between the ages of 2 and 3 years and weighing approximately 1.7 kg. Each received the test article (CDDO-Me in sesame oil) at 75 mg/kg/day via oral gavage administered at a volume of 5 mL/kg on Days 1, 2, and 3. Individual doses were based on the most recently obtained body weights. Blood samples were collected from the femoral artery/vein for determination of the plasma concentrations of the test article at 0.5, 1.5, 3, and 12 hours after dosing on Days 1 and 2 and at 0.5, 1.5, and 3 hours after dosing (±0.5 hour) on Day 3.
At the termination of the study (approximately three hours after dosing on Day 3), all animals were euthanized and tissues collected. Samples (approximately 1 g or greater) of the adipose tissue, brain, colon, cheek pouch (buccal mucosa), heart, ileum, kidney, liver, lung, mammary glands, ovaries, pancreas, prostate, and bone marrow from the femur (as much as possible) were collected and frozen at approximately −20° C. for analysis for the presence of the test article. All other tissues and organs were discarded.
In Table 1 nM is ng/mL×1000/505.8, where 505.8 is the molecular weight of RTA-402 using the approximation that the density of the tissue is that of water.

MOG-induced EAE [4] = assay: MOG-induced rapidly progressive EAE model, treatment, clinical score; assay type: in vivo, mouse; conditions: 100 nmol (~2.8 mg/kg) IP, Q2Dx4, in 7.5% PBST, n=2/group
NF-κB = NF-κB activated by TNF, IL-1β, phorbol ester, okadaic acid, hydrogen peroxide, LPS, cigarette smoke; cited from earlier work

In the case of `CC1(C)CC[C@]2(C(=O)O)CC[C@]3(C)[C@H](C(=O)C=C4[C@@]5(C)C=C(C#N)C(=O)C(C)(C)[C@@H]5CC[C@]43C)[C@@H]2C1` [CDDO, 2-cyano-3,12-dioxooleane-1,9(11)-dien-28-oic acid], the “expression of HO-1” value (heme oxygenase-1 (HO-1)) is given as “rapidly increase the expression of the cytoprotective heme oxygenase-1 (HO-1) enzyme”.

In the case of `CC1(C)CC[C@]2(C(=O)n3ccnc3)CC[C@]3(C)[C@H](C(=O)C=C4[C@@]5(C)C=C(C#N)C(=O)C(C)(C)[C@@H]5CC[C@]43C)[C@@H]2C1` [CDDO-Im], the “expression of HO-1” value (heme oxygenase-1 (HO-1)) is given as “rapidly increase the expression of the cytoprotective heme oxygenase-1 (HO-1) enzyme”.

With `CNC(=O)[C@]12CCC(C)(C)C[C@H]1C1C(=O)C=C3[C@@]4(C)C=C(C#N)C(=O)C(C)(C)[C@@H]4CC[C@@]3(C)[C@]1(C)CC2` (some centres unmarked) [CDDO-MA] the “concentration in brains of mice” value ([1]; 800 mg/kg diet, 2 or 4 days, FIG. 2) was “Significant Concentrations”.

With `COC(=O)[C@]12CCC(C)(C)C[C@H]1[C@H]1C(=O)C=C3[C@@]4(C)C=C(C#N)C(=O)C(C)(C)[C@@H]4CC[C@@]3(C)[C@]1(C)CC2` [CDDO-Me] the “delay of development of clinical scores” value (MOG-induced EAE [2]) was “modestly delayed”, the “average tissue concentration, Breast” value [3] was 4,389 nM and the “average tissue concentration, Colon” value [3] was 4,467 nM. For the same compound, the “average tissue concentration, Kidney” value [3] was 1,603 nM, the “average tissue concentration, Liver” value [3] was 926 nM and the “average tissue concentration, Lung” value [3] was 4,992 nM. For the same compound, the “average tissue concentration, Ovary” value [3] was 2,115 nM, the “average tissue concentration, Prostate” value [3] was 4,446 nM and the “tissue concentration, Brain (range of results obtained)” value [3] was 215 to 447 nM. The “recovery of clinical score (CS 0 no symptoms, 6 quadriplegia)” value (MOG-induced EAE [4]) was “induce full recovery of mice”, the “recovery of clinical score (CS 0 no symptoms, 6 quadriplegia)” value (MOG-induced EAE [4]; listed as RTA 402) was “induce complete recovery of symptoms after initial relapse” and the “recovery of clinical score (CS 0 no symptoms, 6 quadriplegia)” value (MOG-induced EAE [4]; listed as RTA-402) was “Induce Full Recovery of Mice; also recorded: Treated Animals Recover”. The “inhibition of constitutive and inducible NF-κB” value (NF-κB) was “potently inhibits both constitutive and inducible NF-κB” and the “level of compound in mouse brain” value ([1]; fed very low levels in diet for one week (100 mg/kg diet), FIG. 1) was “able to reach appreciable levels in the brain; also recorded: Detectable in the Brains of Mice”.
